Source: patent publication US12077503B2, “Substituted cyclic amides and their use as herbicides” (FMC CORPORATION, priority 2015, dated 2024)

What was measured:
Experiment in all cases: Test C preemergence
Format in all cases: in vivo
[1] = tested on: Galium (catchweed bedstraw, Galium aparine); conditions: for Plant response rating, Galium: scale 0 to 100, 0 no effect, 100 complete control
Source text: (§1) Seeds of plant species selected from blackgrass (Alopecurus myosuroides), ryegrass, Italian (Italian ryegrass, Lolium multiflorum), wheat (winter wheat, Triticum aestivum), Galium (catchweed bedstraw, Galium aparine), corn (Zea mays), crabgrass, large (large crabgrass, Digitaria sanguinalis), foxtail, giant (giant foxtail, Setaria faberii), johnsongrass (Sorghum halepense), lambsquarters (Chenopodium album), morningglory (Ipomoea coccinea), nutsedge, yellow (yellow nutsedge, Cyperus esculentus), pigweed (Amaranthus retroflexus), ragweed (common ragweed, Ambrosia elatior), soybean (Glycine max), barnyardgrass (Echinochloa crus-galli), oilseed rape (Brassica napus), waterhemp (common waterhemp, Amaranthus rudis) and velvetleaf (Abutilon theophrasti) were planted into a blend of loam soil and sand and treated preemergence with test chemicals formulated in a non-phytotoxic solvent mixture which included a surfactant.
(§2) At the same time, plants selected from these crop and weed species and also Kochia (Kochia scoparia), oat, wild (wild oat, Avena fatua), and chickweed (common chickweed, Stellaria media) were planted in pots containing Sunshine Redi-Earth® planting medium comprising spaghnum peat moss, vermiculite, starter nutrients and dolomitic limestone and treated with postemergence applications of test chemicals formulated in the same manner. Plants ranged in height from 2 to 18 cm (1- to 4-leaf stage) for postemergence treatments. Treated plants and controls were maintained in a greenhouse for 13 to 15 d, after which time all species were compared to controls and visually evaluated. Plant response ratings, summarized in Table C, are based on a scale of 0 to 100 where 0 is no effect and 100 is complete control. A dash (-) response means no test result.

[2] = tested on: barnyardgrass (Echinochloa crus-galli); conditions: for Plant response rating, Barnyardgrass: scale 0 to 100, 0 no effect, 100 complete control
Source text: as §1, §2

[3] = tested on: blackgrass (Alopecurus myosuroides); conditions: for Plant response rating, Blackgrass: scale 0 to 100, 0 no effect, 100 complete control
Source text: as §1, §2

[4] = tested on: corn (Zea mays); conditions: for Plant response rating, Corn: scale 0 to 100, 0 no effect, 100 complete control
Source text: as §1, §2

[5] = tested on: crabgrass, large (large crabgrass, Digitaria sanguinalis); conditions: for Plant response rating, Crabgrass, Large: scale 0 to 100, 0 no effect, 100 complete control
Source text: as §1, §2

[6] = tested on: foxtail, giant (giant foxtail, Setaria faberii); conditions: for Plant response rating, Foxtail, Giant: scale 0 to 100, 0 no effect, 100 complete control
Source text: as §1, §2

[7] = tested on: johnsongrass (Sorghum halepense); conditions: for Plant response rating, Johnsongrass: scale 0 to 100, 0 no effect, 100 complete control
Source text: as §1, §2

[8] = tested on: lambsquarters (Chenopodium album); conditions: for Plant response rating, Lambsquarters: scale 0 to 100, 0 no effect, 100 complete control
Source text: as §1, §2

[9] = tested on: morningglory (Ipomoea coccinea); conditions: for Plant response rating, Morningglory: scale 0 to 100, 0 no effect, 100 complete control
Source text: as §1, §2

[10] = tested on: nutsedge, yellow (yellow nutsedge, Cyperus esculentus); conditions: for Plant response rating, Nutsedge, Yellow: scale 0 to 100, 0 no effect, 100 complete control
Source text: as §1, §2

[11] = tested on: oilseed rape (Brassica napus); conditions: for Plant response rating, Oilseed Rape: scale 0 to 100, 0 no effect, 100 complete control
Source text: as §1, §2

[12] = tested on: pigweed (Amaranthus retroflexus); conditions: for Plant response rating, Pigweed: scale 0 to 100, 0 no effect, 100 complete control
Source text: as §1, §2

[13] = tested on: ragweed (common ragweed, Ambrosia elatior); conditions: for Plant response rating, Ragweed: scale 0 to 100, 0 no effect, 100 complete control
Source text: as §1, §2

[14] = tested on: ryegrass, Italian (Italian ryegrass, Lolium multiflorum); conditions: for Plant response rating, Ryegrass, Italian: scale 0 to 100, 0 no effect, 100 complete control
Source text: as §1, §2

[15] = tested on: soybean (Glycine max); conditions: for Plant response rating, Soybean: scale 0 to 100, 0 no effect, 100 complete control
Source text: as §1, §2

[16] = tested on: velvetleaf (Abutilon theophrasti); conditions: for Plant response rating, Velvetleaf: scale 0 to 100, 0 no effect, 100 complete control
Source text: as §1, §2

[17] = tested on: waterhemp (common waterhemp, Amaranthus rudis); conditions: for Plant response rating, Waterhemp: scale 0 to 100, 0 no effect, 100 complete control
Source text: as §1, §2

[18] = tested on: wheat (winter wheat, Triticum aestivum); conditions: for Plant response rating, Wheat: scale 0 to 100, 0 no effect, 100 complete control
Source text: as §1, §2

[19] = 31 g ai/ha, 0 is no effect, 100 is complete control

CN1CC(c2cccc(OC(F)F)c2)C(C(=O)Nc2ccccc2S(C)(=O)=O)C1=O (stereo not drawn) [Compound 523]
Plant response rating (scale of 0 to 100), Galium [1, 19]: 0 | Plant response rating, Galium ([1]; 62 g ai/ha): 80 | Plant response rating, Galium ([1]; 125 g ai/ha): 80 | Plant response rating, Galium ([1]; 250 g ai/ha): 80 | Plant response rating (scale of 0 to 100), Barnyardgrass [2, 19]: 65 | Plant response rating, Barnyardgrass ([2]; 62 g ai/ha): 95 | Plant response rating, Barnyardgrass ([2]; 125 g ai/ha): 98 | Plant response rating, Barnyardgrass ([2]; 250 g ai/ha): 100 | Plant response rating (scale of 0 to 100), Blackgrass [3, 19]: 0 | Plant response rating, Blackgrass ([3]; 62 g ai/ha): 0 | Plant response rating, Blackgrass ([3]; 125 g ai/ha): 20 | Plant response rating, Blackgrass ([3]; 250 g ai/ha): 90 | Plant response rating (scale of 0 to 100), Corn [4, 19]: 0 | Plant response rating, Corn ([4]; 62 g ai/ha): 20 | Plant response rating, Corn ([4]; 125 g ai/ha): 65 | Plant response rating, Corn ([4]; 250 g ai/ha): 85 | Plant response rating (scale of 0 to 100), Crabgrass, Large [5, 19]: 90 | Plant response rating, Crabgrass, Large ([5]; 62 g ai/ha): 95 | Plant response rating, Crabgrass, Large ([5]; 125 g ai/ha): 100 | Plant response rating, Crabgrass, Large ([5]; 250 g ai/ha): 98 | Plant response rating (scale of 0 to 100), Foxtail, Giant [6, 19]: 85 | Plant response rating, Foxtail, Giant ([6]; 62 g ai/ha): 90 | Plant response rating, Foxtail, Giant ([6]; 125 g ai/ha): 98 | Plant response rating, Foxtail, Giant ([6]; 250 g ai/ha): 98 | Plant response rating (scale of 0 to 100), Johnsongrass [7, 19]: 0 | Plant response rating, Johnsongrass ([7]; 62 g ai/ha): 30 | Plant response rating, Johnsongrass ([7]; 125 g ai/ha): 60 | Plant response rating, Johnsongrass ([7]; 250 g ai/ha): 70 | Plant response rating (scale of 0 to 100), Lambsquarters [8, 19]: 20 | Plant response rating, Lambsquarters ([8]; 62 g ai/ha): 70 | Plant response rating, Lambsquarters ([8]; 125 g ai/ha): 70 | Plant response rating, Lambsquarters ([8]; 250 g ai/ha): 65 | Plant response rating (scale of 0 to 100), Morningglory [9, 19]: 20 | Plant response rating, Morningglory ([9]; 62 g ai/ha): 35 | Plant response rating, Morningglory ([9]; 125 g ai/ha): 25 | Plant response rating, Morningglory ([9]; 250 g ai/ha): 35 | Plant response rating (scale of 0 to 100), Nutsedge, Yellow [10, 19]: 0 | Plant response rating, Nutsedge, Yellow ([10]; 62 g ai/ha): 0 | Plant response rating, Nutsedge, Yellow ([10]; 125 g ai/ha): 0 | Plant response rating, Nutsedge, Yellow ([10]; 250 g ai/ha): 40 | Plant response rating (scale of 0 to 100), Oilseed Rape [11, 19]: 0 | Plant response rating, Oilseed Rape ([11]; 62 g ai/ha): 0 | Plant response rating, Oilseed Rape ([11]; 125 g ai/ha): 30 | Plant response rating, Oilseed Rape ([11]; 250 g ai/ha): 60 | Plant response rating (scale of 0 to 100), Pigweed [12, 19]: 75 | Plant response rating, Pigweed ([12]; 62 g ai/ha): 100 | Plant response rating, Pigweed ([12]; 125 g ai/ha): 90 | Plant response rating, Pigweed ([12]; 250 g ai/ha): 90 | Plant response rating (scale of 0 to 100), Ragweed [13, 19]: 5 | Plant response rating, Ragweed ([13]; 62 g ai/ha): 15 | Plant response rating, Ragweed ([13]; 125 g ai/ha): 40 | Plant response rating, Ragweed ([13]; 250 g ai/ha): 70 | Plant response rating (scale of 0 to 100), Ryegrass, Italian [14, 19]: 0 | Plant response rating, Ryegrass, Italian ([14]; 62 g ai/ha): 5 | Plant response rating, Ryegrass, Italian ([14]; 125 g ai/ha): 5 | Plant response rating, Ryegrass, Italian ([14]; 250 g ai/ha): 20 | Plant response rating (scale of 0 to 100), Soybean [15, 19]: 10 | Plant response rating, Soybean ([15]; 62 g ai/ha): 25 | Plant response rating, Soybean ([15]; 125 g ai/ha): 30 | Plant response rating, Soybean ([15]; 250 g ai/ha): 45 | Plant response rating (scale of 0 to 100), Velvetleaf [16, 19]: 0 | Plant response rating, Velvetleaf ([16]; 62 g ai/ha): 0 | Plant response rating, Velvetleaf ([16]; 125 g ai/ha): 30 | Plant response rating, Velvetleaf ([16]; 250 g ai/ha): 45 | Plant response rating (scale of 0 to 100), Waterhemp [17, 19]: 55 | Plant response rating, Waterhemp ([17]; 62 g ai/ha): 65 | Plant response rating, Waterhemp ([17]; 125 g ai/ha): 65 | Plant response rating, Waterhemp ([17]; 250 g ai/ha): 80 | Plant response rating (scale of 0 to 100), Wheat [18, 19]: 0 | Plant response rating, Wheat ([18]; 62 g ai/ha): 30 | Plant response rating, Wheat ([18]; 125 g ai/ha): 50 | Plant response rating, Wheat ([18]; 250 g ai/ha): 80
